Test results: US20260199483A1 (Bright Angel Therapeutics Inc., priority 2022, published 2026)
Converted amounts (≈) assume the structure as drawn.

How the values were obtained:
[1] = target: T1, purified recombinant Yck2 (Candida albicans, UniProt A0A1D8PKB4); assay: HotSpot kinase assay; format: biochemical, C. albicans
T1 construct: Yck2 residues 37-345 were PCR amplified from C. albicans genomic DNA; His6 (N); TEV protease site (N); made in house; host or cells: E. coli BL21(DE3)-Gold
Description: IC50s were determined using the in vitro HotSpot kinase assay (purified enzymes, ^33P-ATP, an appropriate substrate and 1 μM ATP). For enzyme inhibition assays, compounds were tested in range of ten concentrations from 10 uM to 0.0005 uM using purified recombinant Yck2. Reaction conditions were 1 uM ATP, one hour incubation with inhibitor, and kinase activity detected using 33-ATP phosphorylation of an appropriately selected peptide substrate.
Yck2 residues 37-345 were PCR amplified from C. albicans genomic DNA and subcloned into the vector pMCSG53, which codes for a N-terminal His6 tag, TEV protease site, followed by the Yck2 protein. E. coli BL21(DE3)-Gold competent cells were transformed with this plasmid and the Yck2 protein was purified using methodology previously described (Stogios et al., ACS Chem. Biol. 13, 1322-1332 (2018)).

CaCi2 = assay: Antifungal sensitivity testing (broth microdilution MIC); format: cell-based; settings: CaCi2, 96-well broth microdilution, compounds in DMSO
Description: Minimum inhibitory concentrations (MICs) were determined in flat bottom, 96-well plate format using a modified broth microdilution protocol as previously described (Singh et al., PLoS Pathog. 5, e1000532 (2009); LaFayette et al., PLoS Pathog. 6, 79-80 (2010)). Compounds were formulated in dimethyl sulfoxide (DMSO, Sigma-Aldrich Co.). Each compound was tested in duplicate in at least two independent experiments.

[2] = Mammalian cell toxicity (Cell Titer-Glo); format: cell-based; settings: human; HepG2 cells, 48 h incubation, Cell Titer-Glo luminescence
Description: HepG2 cells were seeded overnight at 500 cells/well in 384-well plate, then incubated with compounds (10-point concentration titration) for 48 h. Cell Titer-Glo® reagent ([…]) was added to each well and after 10-minute incubation at room temperature the luminescent signal was measured using an Envision plate reader (Perkin Elmer).

T1 sequence (A0A1D8PKB4 entry or part of it): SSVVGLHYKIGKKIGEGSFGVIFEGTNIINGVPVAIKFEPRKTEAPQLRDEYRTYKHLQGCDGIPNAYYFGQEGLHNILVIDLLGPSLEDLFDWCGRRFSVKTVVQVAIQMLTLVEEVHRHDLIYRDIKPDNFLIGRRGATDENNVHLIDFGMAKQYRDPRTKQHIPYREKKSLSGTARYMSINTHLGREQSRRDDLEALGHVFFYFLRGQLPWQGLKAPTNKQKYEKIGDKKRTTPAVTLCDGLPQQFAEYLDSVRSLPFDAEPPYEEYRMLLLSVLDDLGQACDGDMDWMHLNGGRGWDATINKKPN

SMILES | IC50 [1] [nM] | MIC50 (CaCi2) [µM] | IC50 at 48 h [2] [µM]
OC(CN1CCC(Oc2cccc3c(-c4ccncc4)c(-c4ccc(F)cc4)nn23)CC1)(Cn1cncn1)c1ccc(F)cc1F (stereo not drawn) [Compound I-154, 2-(2,4-difluorophenyl)-1-(4-((2-(4-fluorophenyl)-3-(pyridin-4-yl)pyrazolo[1,5-a]pyridin-7-yl)oxy)piperidin-1-yl)-3-(1H-1,2,4-triazol-1-yl)propan-2-ol] | 176 | 0.195 (≈ 0.122 µg/mL) | –
Nc1nccc(-c2c(-c3ccc(F)cc3)ncn2C2CCN(CCCn3c4c(c5cc(Cl)ccc53)CCNC4)CC2)n1 [Compound I-232, 4-(1-(1-(3-(6-chloro-1,2,3,4-tetrahydro-9H-pyrido[3,4-b]indol-9-yl)propyl)piperidin-4-yl)-4-(4-fluorophenyl)-1H-imidazol-5-yl)pyrimidin-2-amine] | 2.61 | > 25 | –
Cn1cc(-c2ccncc2COC(=O)NC2CCN(CC(O)(Cn3cncn3)c3ccc(F)cc3F)CC2)c(-c2ccc(F)cc2)n1 (stereo not drawn) [Compound I-244, (4-(3-(4-fluorophenyl)-1-methyl-1H-pyrazol-4-yl)pyridin-3-yl)methyl (1-(2-(2,4-difluorophenyl)-2-hydroxy-3-(1H-1,2,4-triazol-1-yl)propyl)piperidin-4-yl)carbamate] | – | – | 18.4
OC(COc1cccc2c(-c3ccncc3)c(-c3ccc(F)cc3)nn12)(Cn1cncn1)c1ccc(F)cc1F (stereo not drawn) [Compound I-139, 2-(2,4-difluorophenyl)-1-((2-(4-fluorophenyl)-3-(pyridin-4-yl)pyrazolo[1,5-a]pyridin-7-yl)oxy)-3-(1H-1,2,4-triazol-1-yl)propan-2-ol] | – | – | > 20
O=C(NCCC(O)(Cn1cncn1)c1ccc(F)cc1F)c1ccc2c(-c3ccncc3)c(-c3ccc(F)cc3)nn2c1 (stereo not drawn) [Compound I-148, N-(3-(2,4-difluorophenyl)-3-hydroxy-4-(1H-1,2,4-triazol-1-yl)butyl)-2-(4-fluorophenyl)-3-(pyridin-4-yl)pyrazolo[1,5-a]pyridine-6-carboxamide] | 1.61 | 6.25 (≈ 3.65 µg/mL) | –
Nc1nccc(-c2c(-c3ccc(F)cc3)ncn2C2CCN(C3CCN(CC(O)(Cn4cncn4)c4ccc(F)cc4F)CC3)CC2)n1 (stereo not drawn) [Compound I-224] | 72.3 | 25 (≈ 16.5 µg/mL) | –
O[C@@](CNCc1ccc2c(-c3ccncc3)c(-c3ccc(F)cc3)nn2c1)(Cn1cncn1)c1ccc(F)cc1F [Compound I-253, (S)-2-(2,4-difluorophenyl)-1-(((2-(4-fluorophenyl)-3-(pyridin-4-yl)pyrazolo[1,5-a]pyridin-6-yl)methyl)amino)-3-(1H-1,2,4-triazol-1-yl)propan-2-ol] | 5.95 | 0.137 (≈ 0.0761 µg/mL) | –
Cn1cc(-c2ccnc3c2C(=O)N(CC2CCN(C[C@](O)(Cn4cncn4)c4ccc(F)cc4F)CC2)C3)c(-c2ccc(F)cc2)n1 [Compound I-238, (S)-6-((1-(2-(2,4-difluorophenyl)-2-hydroxy-3-(1H-1,2,4-triazol-1-yl)propyl)piperidin-4-yl)methyl)-4-(3-(4-fluorophenyl)-1-methyl-1H-pyrazol-4-yl)-6,7-dihydro-5H-pyrrolo[3,4-b]pyridin-5-one] | 7.84 | 0.781 (≈ 0.502 µg/mL) | –
O=C(NCC1CCN(CC(O)(Cn2cncn2)c2ccc(F)cc2F)CC1)c1ccc2c(-c3ccncc3)c(-c3ccc(F)cc3)nn2c1 (stereo not drawn) [Compound I-147, N-((1-(2-(2,4-difluorophenyl)-2-hydroxy-3-(1H-1,2,4-triazol-1-yl)propyl)piperidin-4-yl)methyl)-2-(4-fluorophenyl)-3-(pyridin-4-yl)pyrazolo[1,5-a]pyridine-6-carboxamide] | 36.8 | 0.0977 (≈ 0.0651 µg/mL) | –
Cn1cc(-c2ccnc3c2C(=O)N(CC2CCN(CC(=O)OC(Cn4cncn4)(Cn4cncn4)c4ccc(F)cc4F)CC2)C3)c(-c2ccc(F)cc2)n1 [Compound I-249, 2-(2,4-difluorophenyl)-1,3-di(1H-1,2,4-triazol-1-yl)propan-2-yl 2-(4-((4-(3-(4-fluorophenyl)-1-methyl-1H-pyrazol-4-yl)-5-oxo-5,7-dihydro-6H-pyrrolo[3,4-b]pyridin-6-yl)methyl)piperidin-1-yl)acetate] | – | – | > 50
[2H]C([2H])(NCC(O)(Cn1cncn1)c1ccc(F)cc1F)c1ccc2c(-c3ccncc3)c(-c3ccc(F)cc3)nn2c1 (stereo not drawn) [Compound I-261, 2-(2,4-difluorophenyl)-1-(((2-(4-fluorophenyl)-3-(pyridin-4-yl)pyrazolo[1,5-a]pyridin-6-yl)methyl-d2)amino)-3-(1H-1,2,4-triazol-1-yl)propan-2-ol] | – | 0.195 (≈ 0.109 µg/mL) | –
O=C(NC1CCN(CC(O)(Cn2cncn2)c2ccc(F)cc2F)CC1)c1ccc2c(-c3ccncc3)c(-c3ccc(F)cc3)nn2c1 (stereo not drawn) [Compound I-100, N-(1-(2-(2,4-difluorophenyl)-2-hydroxy-3-(1H-1,2,4-triazol-1-yl)propyl)piperidin-4-yl)-2-(4-fluorophenyl)-3-(pyridin-4-yl)pyrazolo[1,5-a]pyridine-6-carboxamide] | 32.9 | 0.0651 (≈ 0.0425 µg/mL) | –
Nc1nccc(-c2c(-c3ccc(F)cc3)ncn2C2CCN(CC(O)(Cn3cncn3)c3ccc(F)cc3F)CC2)n1 (stereo not drawn) [Compound I-32, 1-(4-(5-(2-aminopyrimidin-4-yl)-4-(4-fluorophenyl)-1H-imidazol-1-yl)piperidin-1-yl)-2-(2,4-difluorophenyl)-3-(1H-1,2,4-triazol-1-yl)propan-2-ol] | – | > 50 | –
Cn1cc(-c2ccncc2COC2CCN(CC(O)(Cn3cncn3)c3ccc(F)cc3F)CC2)c(-c2ccc(F)cc2)n1 (stereo not drawn) [Compound I-90, 2-(2,4-difluorophenyl)-1-(4-((4-(3-(4-fluorophenyl)-1-methyl-1H-pyrazol-4-yl)pyridin-3-yl)methoxy)piperidin-1-yl)-3-(1H-1,2,4-triazol-1-yl)propan-2-ol] | 47.6 | 0.586 (≈ 0.354 µg/mL) | –
O=C(NC[C@@](O)(Cn1cncn1)c1ccc(F)cc1F)c1ccc2c(-c3ccncc3)c(-c3ccc(F)cc3)nn2c1 [Compound I-117, (R)-N-(2-(2,4-difluorophenyl)-2-hydroxy-3-(1H-1,2,4-triazol-1-yl)propyl)-2-(4-fluorophenyl)-3-(pyridin-4-yl)pyrazolo[1,5-a]pyridine-6-carboxamide] | 5.08 | 0.195 (≈ 0.111 µg/mL) | –
Cn1cc(-c2ccncc2COCC[C@@](O)(Cn2cncn2)c2ccc(F)cc2F)c(-c2ccc(F)cc2)n1 [Compound I-236, (S)-2-(2,4-difluorophenyl)-4-((4-(3-(4-fluorophenyl)-1-methyl-1H-pyrazol-4-yl)pyridin-3-yl)methoxy)-1-(1H-1,2,4-triazol-1-yl)butan-2-ol] | 169 | 2.34 (≈ 1.25 µg/mL) | –
Nc1nccc(-c2c(-c3ccc(F)cc3)ncn2C2CCN(CCCC(O)(Cn3cncn3)c3ccc(F)cc3F)CC2)n1 (stereo not drawn) [Compound I-58, 5-(4-(5-(2-aminopyrimidin-4-yl)-4-(4-fluorophenyl)-1H-imidazol-1-yl)piperidin-1-yl)-2-(2,4-difluorophenyl)-1-(1H-1,2,4-triazol-1-yl)pentan-2-ol] | 3.19 | > 25 | –
O=C(NC[C@](O)(Cn1cncn1)c1ccc(F)cc1F)c1ccc2c(-c3ccncc3)c(-c3ccc(F)cc3)nn2c1 [Compound I-116, (S)-N-(2-(2,4-difluorophenyl)-2-hydroxy-3-(1H-1,2,4-triazol-1-yl)propyl)-2-(4-fluorophenyl)-3-(pyridin-4-yl)pyrazolo[1,5-a]pyridine-6-carboxamide] | 7.91 | 6.25 (≈ 3.56 µg/mL) | –
Nc1nccc(-c2c(-c3ccc(F)cc3)ncn2C2CCN(C[C@](O)(Cn3cncn3)c3ccc(F)cc3F)CC2)n1 (single isomer, unassigned) [Compound I-33] | 12.3 | – | –
Cn1cc(-c2ccncc2COCC[C@](O)(Cn2cncn2)c2ccc(F)cc2F)c(-c2ccc(F)cc2)n1 [Compound I-235, (R)-2-(2,4-difluorophenyl)-4-((4-(3-(4-fluorophenyl)-1-methyl-1H-pyrazol-4-yl)pyridin-3-yl)methoxy)-1-(1H-1,2,4-triazol-1-yl)butan-2-ol] | 107 | – | –
Cn1cc(-c2ccnc3c2C(=O)N(CC2CCN(CC(O)(Cn4cncn4)c4ccc(F)cc4F)CC2)C3)c(-c2ccc(F)cc2)n1 (stereo not drawn) [Compound I-230, 6-((1-(2-(2,4-difluorophenyl)-2-hydroxy-3-(1H-1,2,4-triazol-1-yl)propyl)piperidin-4-yl)methyl)-4-(3-(4-fluorophenyl)-1-methyl-1H-pyrazol-4-yl)-6,7-dihydro-5H-pyrrolo[3,4-b]pyridin-5-one] | 2.93 | 1.88 (≈ 1.21 µg/mL) | –
OC(Cn1cncn1)(c1ccc(F)cc1F)C(F)(F)c1ccc(-c2ccc(CNCc3ccc4c(-c5ccncc5)c(-c5ccc(F)cc5)nn4c3)cc2)cn1 (stereo not drawn) [Compound I-262, 2-(2,4-difluorophenyl)-1,1-difluoro-1-(5-(4-((((2-(4-fluorophenyl)-3-(pyridin-4-yl)pyrazolo[1,5-a]pyridin-6-yl)methyl)amino)methyl)phenyl)pyridin-2-yl)-3-(1H-1,2,4-triazol-1-yl)propan-2-ol] | – | 0.293 (≈ 0.222 µg/mL) | –
